Assay results reported in patent publication US12544348B2, “Methods for treating APOE4/4-associated disorders” (The Regents of the University of California, priority 2018, dated 2026).

Columns and labels:
apoE4-KI mice = assay: Morris water maze (MWM) spatial learning and memory, aged apoE4-KI mice; format: in vivo
Description: (§1) Mice. All protocols and procedures followed the guidelines of the Laboratory Animal Resource Center at the University of California, San Francisco (UCSF). All mice were housed under identical conditions from birth through death (12-hour light/dark cycle, housed 5/cage, PicoLab Rodent Diet 20). All mouse lines were maintained on a C57Bl/6J background. ApoE3-KI and apoE4-KI homozygous mouse lines (Taconic)^30,31 were born and aged under normal conditions at the Gladstone Institutes/UCSF animal facility. Female apoE-KI mice were used because of their susceptibility to AD-related neuronal and behavioral deficits. The ages of the mice are indicated in the behavioral testing section of the online methods. Bumetanide treatment. Bumetanide was prepared at 220 μM in 2% DMSO in 0.9% sterile saline, adjusted to pH 8.5 with NaOH for solubility, and given by i.p. injection daily starting 6 weeks before and continuing throughout behavioral assessment. Body weight was measured weekly during bumetanide treatment; injection volume was calculated to achieve a dose of 0.02 (low) or 0.2 (high) mg bumetanide/kg body mass (e.g., 50-ul daily injection for a 20-g mouse). Control mice were injected with a matched volume of 2% DMSO in 0.9% sterile saline, pH 8.5. […] Behavioral testing. Mice were singly housed before testing. Each mouse was assigned a random number, so researchers were blinded to genotype and treatment information. At about 14 months of age, apoE3-KI and apoE4-KI mice were randomly assigned to treatment groups: apoE3-KI vehicle (n=10, age 14.01±0.44 months), apoE3-KI low bumetanide (n=11, age 14.30±0.33 months), apoE3-KI high bumetanide (n=10, age 13.74±0.22 months), apoE4-KI vehicle (n=10, age 14.10±0.35), apoE4-KI low bumetanide (n=10, age 14.70±0.27 months), apoE4-KI high bumetanide (n=9, age 13.77±0.28 months). Treatment was administered daily by i.p. injection beginning 6 weeks before and continuing throughout the 14 days of testing in the Morris water maze (MWM); injections were given at the end of the light cycle and after the day's test. The MWM pool (diameter, 122 cm) contained opaque water (22-23° C.) with a platform 10 cm in diameter. The platform was submerged 1.5 cm during hidden platform sessions^20-23,32 and marked with black-and-white-striped mast (15 cm high) during cued training sessions. Mice were trained to locate the hidden platform (hidden days 1-5) and the cued platform (visible days 1-3) in two daily sessions (3.5 h apart), each consisting of two 60-s trials (hidden and cued training) with a 15-min intertrial interval. Distal visual cues on the walls of the behavioral testing room remained constant throughout the test. Visible trials took place after training and memory probes and were 60 seconds long with a cued visible platform. The platform location remained constant in the hidden platform sessions but was changed for each cued (visible) platform session. Entry points were changed semirandomly between trials. At 24, 72, and 120 hours after the last hidden platform training, a 60-s probe trial (platform removed) was done. The entry point for the probe trial was in the southwest quadrant, and the target quadrant was the northeast quadrant. Performance was monitored with an Etho Vision video-tracking system (Noldus Information Technology). For the probe trials, the following analyses were performed (1) the percent time spent in the target quadrant versus average time spent in the three other quadrants, (2) the number of crossings over the position of the target platform versus the average number of crossings over the equivalent positions in the three other quadrants and (3) the distance to platform over the first 10 seconds. Statistical analyses. Behavior metrics are expressed as mean±SEM. All values for n are the numbers of mice or biological replicates. The distribution of data was assessed with the Shapiro-Wilk normality test; most of the data were normally distributed. […]

apoE3-KI mice = assay: Morris water maze (MWM) spatial learning and memory, aged apoE3-KI mice; format: in vivo; settings: for short-term memory, 24-hour probe trial: vs vehicle-treated apoE3-KI
Description: as §1

[1] = 16-month-old apoE4-KI mice, high dose 0.2 mg/kg daily i.p. 8 weeks
[2] = apoE4-KI mice, high dose 0.2 mg/kg daily i.p. 8 weeks
[3] = apoE3-KI mice, high dose 0.2 mg/kg daily i.p. 8 weeks
[4] = apoE3-KI mice, low dose 0.02 mg/kg daily i.p. 8 weeks

## CCCCNc1cc(C(=O)O)cc(S(N)(=O)=O)c1Oc1ccccc1 [bumetanide, 3-(butylamino)-4-phenoxy-5-sulfamoylbenzoic acid]
apoE4-KI mice; [1]
  long-term memory, 120-hour probe trial (time in target quadrant): significant preference for the target quadrant
  short-term memory, 24-hour probe trial (percent time in target quadrant): rescued the short-term memory deficit
apoE4-KI mice; 16-month-old apoE4-KI mice, low dose 0.02 mg/kg daily i.p. 8 weeks
  short-term memory, 24-hour probe trial (percent time in target quadrant): rescued the short-term memory deficit
apoE4-KI mice; apoE4-KI mice, 0.02 or 0.2 mg/kg daily i.p. 8 weeks, vs vehicle, learning days 1-5
  learning curve (escape latency) in hidden platform trials: did not differ
apoE4-KI mice; [2]
  platform crossings in target quadrant versus other quadrants, 24-hour probe trial: significantly more platform crossings in the target quadrant
  platform crossings in target quadrant versus other quadrants, 120-hour probe trial: significantly more platform crossings in the target quadrant
apoE4-KI mice; apoE4-KI mice, low dose 0.02 mg/kg daily i.p. 8 weeks
  short-term memory accuracy (platform crossings), 24-hour probe trial: trend toward significant improvement
apoE3-KI mice; aged apoE3-KI mice, dose not stated, vehicle-treated apoE3-KI mice did not
  long-term memory, 120-hour probe trial (summary paragraph, dose not stated): remembered the hidden platform location
apoE3-KI mice; apoE3-KI mice, 0.02 or 0.2 mg/kg daily i.p. 8 weeks, vs vehicle, learning days 1-5
  learning curve (escape latency) in hidden platform trials: did not differ
apoE3-KI mice; [3]
  long-term memory, 120-hour probe trial: forgot the hidden platform location
  platform crossings in target quadrant versus other quadrants, 24-hour probe trial: not apoE3-KI mice
  platform crossings in target quadrant versus other quadrants, 120-hour probe trial: not apoE3-KI mice
  short-term memory, 24-hour probe trial: impaired short-term memory
apoE3-KI mice; [4]
  long-term memory, 120-hour probe trial: forgot the hidden platform location
  short-term memory, 24-hour probe trial: performed equally well
